Test results as given in PubChem BioAssay (NCI).
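Where inhibition never reached the appropriate level, the endpoint shown equals the highest concentration tested. Otherwise, values were interpolated linearly from a five-concentration, 48-hour dose response in 96-well plates. TGI denotes the concentration required for complete inhibition of growth.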

Columns and labels:
Assay in all cases: growth of human tumour cells (NCI), 48 h
SK-MEL-28 melanoma = system: SK-MEL-28 melanoma
MDA-N = system: MDA-N
CCRF-CEM leukemia = system: CCRF-CEM leukemia
SNB-75 CNS = system: SNB-75 CNS
COLO 205 colon = system: COLO 205 colon
HCT-15 colon = system: HCT-15 colon
ACHN renal = system: ACHN renal
U251 CNS = system: U251 CNS
PC-3 prostate = system: PC-3 prostate
SK-MEL-2 melanoma = system: SK-MEL-2 melanoma

Structure (SMILES) | TGI (SK-MEL-28 melanoma) [µM] | TGI (MDA-N) [µM] | TGI (CCRF-CEM leukemia) [µM] | TGI (SNB-75 CNS) [µM] | TGI (COLO 205 colon) [µM] | TGI (HCT-15 colon) [µM] | TGI (ACHN renal) [µM] | TGI (U251 CNS) [µM] | TGI (PC-3 prostate) [µM] | TGI (SK-MEL-2 melanoma) [µM]
CC(=O)O[C@H]1CC[C@@]2(C)C(=CC[C@@H]3[C@@H]2CC[C@]2(C)C(=N/O)/C(=C\c4ccccc4)C[C@@H]32)C1 | > 56.3 | 99.4 | > 100 | > 100 | 32 | > 100 | > 100 | > 81.5 | > 100 | 39.2
COc1ccc(C2C3=C(N=C4SC(C(C)=O)=C(C)N42)c2ccccc2CC3)cc1 (stereo not drawn) | > 100 | > 100 | > 100 | > 100 | > 100 | > 100 | > 100 | > 100 | > 100 | > 100
CC(C)(C)OC(=O)N/C(C=O)=C\C1CCCCC1 | > 100 | 50.3 | > 100 | > 100 | 36.8 | 41.8 | 86.4 | 40.3 | 47.4 | 54.9
NC(Cc1ccc(OCc2ccccc2)cc1)C(=O)NC(Cc1ccccc1)C(=O)Oc1c(Cl)c(Cl)c(Cl)c(Cl)c1Cl (stereo not drawn) | 31.6 | 26.8 | > 100 | 29.6 | 28.3 | 30.2 | 30.5 | 31.2 | 32.4 | 26.5
CSC(=S)Nc1cc(C)cc(C)n1 | > 31.6 | > 31.6 | > 31.6 | > 10 | > 31.6 | > 31.6 | > 31.6 | > 31.6 | > 31.6 | > 31.6
Cc1cn(C2CCC(CO)(CF)O2)c(=O)[nH]c1=O (stereo not drawn) | > 100 | > 100 | > 100 | > 100 | > 100 | > 100 | > 100 | > 100 | > 100 | > 100
COc1cc2cc(C(=O)N3CC(COS(C)(=O)=O)c4ccc(NC(=O)OCc5ccccc5)cc43)[nH]c2c(OC)c1OC (stereo not drawn) | > 100 | > 100 | > 100 | > 100 | > 100 | > 100 | > 100 | > 100 | > 100 | > 100
Nc1ccc(-c2nc3ccccc3s2)cc1Cl | > 100 | > 100 | 98.3 | > 93.5 | > 100 | > 100 | > 100 | > 100 | > 100 | > 100
O[C@@H]1C=C[C@]23CCN(Cc4cc5c(cc42)OCO5)[C@@H]3C1 | > 100 | > 100 | > 100 | > 100 | > 100 | > 100 | > 100 | > 100 | > 100 | > 100
CC1CC[C@@]2(OC1)O[C@H]1[C@H](O)[C@H]3[C@@H]4CC[C@H]5C[C@@H](OC6OC(CO)C(OC7OC(CO)C(O)C(OC8OCC(O)C(O)C8O)C7OC7OC(CO)C(O)C(O)C7OC7OC(CO)C(O)C(O)C7O)C(O)C6O)[C@H](O)C[C@]5(C)[C@H]4CC[C@]3(C)[C@H]1[C@@H]2C (stereo partly drawn) | > 10 | > 10 | 2.51 | > 10 | > 10 | > 10 | > 10 | > 10 | 7.84 | > 10
COc1cc2ccc(C(=O)NCCCNC(=O)c3ccc4cc(OC)c(OC)cc4c3)cc2cc1OC | > 100 | > 100 | > 100 | 95.8 | > 100 | > 100 | > 100 | > 100 | > 100 | > 100
CC[C@@]1(O)C(=O)OCc2c1cc1n(c2=O)Cc2c-1nc1ccc(O)cc1c2[Si](C)(C)C(C)(C)C | 10.7 | 4.63 | < 0.01 | 0.0162 | 1.53 | 8.81 | – | 0.0192 | 2.9 | 0.786
CSC(SC)=C(C#N)C(=O)Nc1cccc(Cl)c1 | > 100 | > 100 | > 100 | > 100 | > 100 | > 100 | > 100 | > 100 | > 100 | > 100
CC(C)(C)OC(=O)[C@@H]1CCC(=O)N1C1(c2ccccc2)c2ccccc2-c2ccccc21 | 71.3 | 96.8 | 43.7 | > 100 | 77.8 | > 100 | > 100 | 73.8 | > 100 | > 100
Fc1cccc(F)c1C1SCc2nc3cc(Cl)c(Cl)cc3n21 (stereo not drawn) | > 100 | > 100 | > 100 | > 100 | > 100 | > 100 | > 100 | > 100 | > 100 | > 100
FC(F)(F)c1cc(N(C2c3ccccc3C=Cc3ccccc32)P(Cl)Cl)cc(C(F)(F)F)c1 | 87.8 | 76.9 | 82.3 | 61.7 | 51.6 | 45.5 | 33.9 | 33.8 | 78.1 | 37
COC(C/C(=C/CO[Si](C(C)C)(C(C)C)C(C)C)C(=O)N(COCC[Si](C)(C)C)c1ccccc1I)OC | 50 | > 100 | > 100 | > 100 | > 100 | > 100 | > 100 | 94.8 | 83.6 | 29.9
NNC(=O)Nc1nc2ccc(NN)cc2[nH]1 | 56.8 | > 100 | 41.7 | 84.2 | 37.3 | > 100 | > 100 | > 100 | > 100 | > 100
O=C(c1ccccc1)c1ccc2nc(-c3c(Cl)c(Cl)c(Cl)c(Cl)c3-c3nnc(-c4ccccc4)o3)[nH]c2c1 | > 100 | 15.5 | > 100 | 84.4 | > 100 | > 100 | > 100 | > 100 | > 100 | > 100
Cn1cnc(N)c(N=O)c1=O | > 10 | > 10 | > 10 | > 10 | > 10 | > 10 | > 10 | > 10 | > 10 | > 10
CCN1C/C(=C\c2ccc(Cl)cc2)c2nc(N)c(C#N)c(-c3ccc(Cl)cc3)c2C1 | > 100 | > 100 | > 100 | > 100 | > 100 | > 100 | > 100 | > 100 | > 100 | > 100
O=C(O)CSc1ccccc1C(=O)O | > 100 | > 100 | > 100 | > 100 | > 100 | > 100 | > 100 | > 100 | > 100 | > 100
Cc1c(C(=O)c2ccc(N)c3ccccc23)c2ccccc2n1CCN1CCOCC1 | > 100 | 55 | > 100 | 47.4 | 86.9 | > 95.7 | > 100 | > 95.6 | > 100 | 47.2
C1=NCCNCCNCCN=Cc2ccc(cc2)OCc2cccc(n2)COc2ccc1cc2 | > 100 | > 100 | > 100 | > 100 | > 100 | > 100 | > 100 | > 100 | > 100 | > 100
Cc1cccc2c(N)c3cccc(C(=O)NCC[N+](C)(C)Cc4ccc([N+](=O)[O-])s4)c3nc12 | > 100 | 49.9 | 24.4 | 43.8 | 21.4 | > 100 | > 49.2 | > 100 | 30.5 | > 77.6
C[C@]12CC[C@H]3[C@@H](CCC4=CC(=O)C=C[C@@]43OC(=O)C(F)(F)F)[C@@H]1CCC2=O | > 100 | > 100 | > 100 | > 100 | > 100 | > 100 | > 100 | > 100 | > 100 | > 100
CCn1c(=O)c2nc(SC)sc2n(-c2ccc(C)cc2)c1=O | > 100 | > 100 | > 100 | > 95.1 | > 100 | > 100 | > 100 | > 100 | > 100 | > 100
Cc1nc2cc(F)c(F)cc2[nH]c1=O | > 100 | > 100 | > 100 | > 100 | > 100 | > 100 | > 100 | > 100 | > 100 | > 100
O=C1c2cc(Cc3ccccc3)c(=O)c(Cc3ccccc3)cc2C(=O)c2cc(Cc3ccccc3)c(=O)c(Cc3ccccc3)cc21 | > 100 | > 100 | > 100 | > 100 | > 100 | > 100 | > 100 | > 100 | > 100 | > 100
CC1C(NNC(N)=O)Oc2cc3c(cc2C1c1ccccc1O)OCO3 (stereo not drawn) | > 100 | 76.7 | 54.5 | 86.3 | – | > 100 | > 100 | > 100 | 90.6 | > 100
